From article PMC12316308, “Interactions of substrates and phosphinyl containing inhibitors with bacterial and human zinc proteases” (PLOS One, 2025)
Values joined by “and” are separate entries in the source; they are usually repeats but may differ in a detail not shown here. Equal entries are not always repeated. Where two headings read alike, the source gives them in different places.

Assays:
[1] = molecular target: T1, human MT1-MMP/MMP-14 (catalytic domain) (Homo sapiens, UniProt P50281); experiment: Enzyme inhibition kinetics, fluorogenic substrate ES001; assay type: biochemical; conditions: for remaining activity at 10 µM: 10 µM inhibitor
T1 construct: human MT1-MMP/MMP-14 (catalytic domain); purchased Calbiochem (San Diego, CA, USA)

[2] = molecular target: MMP-14; conditions: cited from earlier work
[3] = molecular target: MMP-9; conditions: previously reported; cited from earlier work
[4] = molecular target: T2, thermolysin (TLN) (Bacillus thermoproteolyticus, UniProt P00800); experiment: Enzyme inhibition kinetics, fluorogenic substrate ES005; assay type: biochemical; conditions: for remaining activity at 10 µM: log [H2] (M) -5; for remaining activity at 0.1 µM: log [H2] (M) -7; for remaining activity at 0.01 µM: log [H2] (M) -8; for remaining activity at 0.0001 µM: log [H2] (M) -10; for vi/v0 avg (time dependent inhibition, Supplementary Figure S8): Thermolysin, inhibitor 10 µM
T2 construct: purchased Calbiochem (San Diego, CA, USA)
T2 sequence (P00800 233-548): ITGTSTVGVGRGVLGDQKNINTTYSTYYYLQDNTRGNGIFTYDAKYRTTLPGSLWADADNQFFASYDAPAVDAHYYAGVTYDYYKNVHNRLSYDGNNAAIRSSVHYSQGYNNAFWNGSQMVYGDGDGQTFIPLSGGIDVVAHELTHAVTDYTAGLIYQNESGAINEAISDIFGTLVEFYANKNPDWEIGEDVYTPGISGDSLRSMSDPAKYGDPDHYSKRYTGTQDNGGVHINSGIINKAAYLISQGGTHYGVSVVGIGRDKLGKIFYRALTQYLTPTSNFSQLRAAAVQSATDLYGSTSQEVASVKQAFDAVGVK
Outline: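 Initial rates were read at 37 °C (ex 320/em 405 nm) with 4.0 µM substrate, ES001 for MMP-14 (1.0 nM) and ES005 for PLN (0.5 nM), TLN (0.21 nM), ALN (1.4 nM), in pH 7.5 Hepes, 10 mM CaCl2, 0.005% Brij-35, 1.0% DMSO. Enzymes were preincubated 30 min at room temperature or not; IC50 fitted, Ki from IC50 using Km.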

[5] = molecular target: T3, pseudolysin (PLN, LasB) (Pseudomonas aeruginosa, UniProt P14756); experiment: as above; assay type: biochemical; conditions: for remaining activity at 100 µM: 100 µM inhibitor
T3 construct: purchased Calbiochem (San Diego, CA, USA)
T3 sequence (P14756 198-498): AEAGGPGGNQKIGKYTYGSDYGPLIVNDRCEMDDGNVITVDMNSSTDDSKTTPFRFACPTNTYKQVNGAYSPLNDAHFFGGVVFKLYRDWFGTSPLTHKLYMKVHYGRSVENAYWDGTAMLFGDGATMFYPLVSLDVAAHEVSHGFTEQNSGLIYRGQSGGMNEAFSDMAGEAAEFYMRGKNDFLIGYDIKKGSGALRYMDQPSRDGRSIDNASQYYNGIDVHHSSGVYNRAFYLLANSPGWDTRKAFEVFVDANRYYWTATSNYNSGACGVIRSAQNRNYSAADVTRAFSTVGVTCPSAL

[6] = molecular target: T4, aureolysin (ALN) (Staphylococcus aureus, UniProt P81177); experiment: as above; assay type: biochemical; conditions: for remaining activity at 100 µM: 100 µM inhibitor
T4 construct: purchased BioCentrum Ltd (Kraków, Poland)
T4 sequence (P81177 209-509): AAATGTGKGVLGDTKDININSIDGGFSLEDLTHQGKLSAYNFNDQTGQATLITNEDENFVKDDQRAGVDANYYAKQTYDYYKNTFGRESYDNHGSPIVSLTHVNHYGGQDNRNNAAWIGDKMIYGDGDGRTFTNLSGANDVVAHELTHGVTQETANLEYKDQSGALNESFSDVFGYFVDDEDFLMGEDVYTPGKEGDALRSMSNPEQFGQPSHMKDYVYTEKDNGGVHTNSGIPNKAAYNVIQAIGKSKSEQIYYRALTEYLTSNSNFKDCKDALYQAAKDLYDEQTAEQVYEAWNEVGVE

[7] = molecular target: T5, Mag-Trypsin activated MMP-9 (MMP-9(MT)) (Homo sapiens, UniProt P14780); experiment: Enzyme inhibition kinetics, fluorogenic substrate ES001; assay type: biochemical; conditions: for remaining activity at 100 µM: 100 µM inhibitor; for vi/v0: Mag-Trypsin activated recombinant human MMP-9, v0 = average of vi at 10-10 to 10-8 M H2
T5 construct: made in house; host or cells: Sf9 and High Five insect cells
T5 sequence (P14780 107-707 limits assumed): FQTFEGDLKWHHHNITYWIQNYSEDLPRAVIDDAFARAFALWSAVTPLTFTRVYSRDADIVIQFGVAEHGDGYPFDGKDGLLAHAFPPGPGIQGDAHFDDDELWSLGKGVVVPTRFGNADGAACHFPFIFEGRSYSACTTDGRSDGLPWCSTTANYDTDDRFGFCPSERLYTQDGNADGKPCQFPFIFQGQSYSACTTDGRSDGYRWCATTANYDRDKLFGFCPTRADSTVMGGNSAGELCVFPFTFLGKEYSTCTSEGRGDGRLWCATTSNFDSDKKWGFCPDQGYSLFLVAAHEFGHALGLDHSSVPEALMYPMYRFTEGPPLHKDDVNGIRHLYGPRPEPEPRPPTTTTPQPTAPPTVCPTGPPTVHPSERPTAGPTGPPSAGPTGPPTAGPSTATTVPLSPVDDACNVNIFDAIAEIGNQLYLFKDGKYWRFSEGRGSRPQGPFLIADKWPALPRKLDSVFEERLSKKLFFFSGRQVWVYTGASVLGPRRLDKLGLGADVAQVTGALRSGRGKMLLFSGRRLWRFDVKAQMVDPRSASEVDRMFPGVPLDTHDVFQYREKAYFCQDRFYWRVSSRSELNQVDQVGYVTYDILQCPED

[8] = molecular target: T6, APMA activated MMP-9 (MMP-9(A)) (Homo sapiens, UniProt P14780); experiment: as above; assay type: biochemical; conditions: for remaining activity at 10 µM: 10 µM inhibitor
T6 construct: made in house; host or cells: Sf9 and High Five insect cells
T6 sequence (P14780 107-707 limits assumed): as above
Outline: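 Recombinant full-length proMMP-9 expressed in insect cells was auto-activated with APMA and titrated with galardin. Activity at 0.05 nM enzyme was measured using 4.0 µM fluorogenic substrate ES001 in 100 µL 0.1 M Hepes pH 7.5 containing 10 mM CaCl2, 0.005% Brij-35 and 1.0% DMSO. Initial rates were followed at 37°C (excitation 320 nm, emission 405 nm) relative to inhibitor-free controls.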

[9] = TLN, log [H2] (M) -4, replicates
[10] = TLN, replicates, read-out: vi/v0 before correction of kurve
[11] = TLN, replicates, read-out: vi/v0 corrected (v0 is the average of log -10 to log -7)

NC(=O)C(Cc1c[nH]c2ccccc12)NC(=O)C(CCCc1ccccc1)CP(=O)(O)C(Cc1ccccc1)NC(=O)OCc1ccccc1 (centres unmarked) [H-2]
remaining activity at 10 µM ([1]; 0.25 h, MMP-14, 15 min pre incubation, read-out: vi/v0 (single replicate)): 16.5%
remaining activity at 10 µM ([1]; 0.25 h, MMP-14, 15 min pre incubation, read-out: vi/v0 avg): 16%
remaining activity at 10 µM ([1]; 0.5 h, MMP-14, 30 min pre incubation, read-out: vi/v0 (single replicate)): 14.6%
remaining activity at 10 µM ([1]; 0.5 h, MMP-14, 30 min pre incubation, read-out: vi/v0 avg): 14.7%
remaining activity at 10 µM ([1]; MMP-14, no preincubation, read-out: vi/v0 (single replicate)): 14.5%
remaining activity at 10 µM ([1]; MMP-14, no preincubation, read-out: vi/v0 avg): 17.8%
inhibitory effect on enzymatic activity ([1]; MMP-14, 100 μM compound, in words): strong inhibition
vi/v0 Av (bar diagram figure 7) ([1]; MMP-14, inhibitor 10 μM, average over 0, 15, 30 min preincubation): 0.1603
vi/v0 (relative enzyme activity with inhibitor), single determinations ([1]; MMP-14, inhibitor 10 μM, preincubation 0 min): 0.1454 and 0.1797 and 0.2098
Ki ([1]; read-out: Ki ± s.d. (converted)): 3000 nM
Ki ([2]; RRS enantiomer): 386 nM
Ki ([2]; RSS enantiomer): 90 nM
Ki ([2]; previously reported): 40 nM
Ki [3]: 10 nM
inhibitory effect on enzymatic activity ([4]; TLN, 100 μM compound, in words): strong inhibition
vi/v0 before correction of kurve [4, 9]: 0
vi/v0 corrected (v0 is the average of log -10 to log -7) [4, 9]: 0
remaining activity at 100 µM ([4]; TLN, log [H2] (M) -4, replicates, read-out: vi/v0 before correction of kurve): 0%
remaining activity at 100 µM ([4]; TLN, log [H2] (M) -4, replicates, read-out: vi/v0 corrected (v0 is the average of log -10 to log -7)): 0%
remaining activity at 10 µM [4, 10]: 28.2%
remaining activity at 10 µM [4, 11]: 28.1%
remaining activity at 0.1 µM [4, 10]: 99.7%
remaining activity at 0.1 µM [4, 11]: 99.5%
remaining activity at 0.01 µM [4, 10]: 102%
remaining activity at 0.01 µM [4, 11]: 102%
remaining activity at 0.0001 µM [4, 10]: 95%
remaining activity at 0.0001 µM [4, 11]: 94.8%
vi/v0 Av (bar diagram figure 7) ([4]; Thermolysin (TLN), inhibitor 10 μM, average over 0, 15, 30 min preincubation): 0.2888
vi/v0 (relative enzyme activity with inhibitor), single determinations ([4]; Thermolysin (TLN), inhibitor 10 μM, preincubation 0 min): 0.2407 and 0.2992 and 0.3158 and 0.3218
vi/v0 avg (time dependent inhibition, Supplementary Figure S8) ([4]; 15 min pre incubation): 0.1753
vi/v0 avg (time dependent inhibition, Supplementary Figure S8) ([4]; 30 min pre incubation): 0.294
vi/v0 avg (time dependent inhibition, Supplementary Figure S8) ([4]; No preincubation): 0.2944
Ki ([4]; read-out: Ki ± s.d.): 2500 nM
Ki [5]: 40000 nM
remaining activity at 100 µM ([5]; 0.25 h, read-out: vi/v0 (single replicate), Pseudolysin, 15 min pre incubation): 29.3%
remaining activity at 100 µM ([5]; 0.25 h, read-out: vi/v0 avg, Pseudolysin, 15 min pre incubation): 29.7%
remaining activity at 100 µM ([5]; 0.5 h, read-out: vi/v0 avg, Pseudolysin, 30 min pre incubation): 28.3%
inhibitory effect on enzymatic activity ([5]; PLN, 100 μM compound, in words): strong inhibition
vi/v0 Av (bar diagram figure 7) ([5]; Pseudolysin (PLN), inhibitor 100 μM, average over 0, 15, 30 min preincubation): 0.3295
vi/v0 (relative enzyme activity with inhibitor), single determinations ([5]; Pseudolysin (PLN), inhibitor 100 μM, preincubation 0 min): 0.3705 and 0.2811 and 0.5391
vi/v0 (relative enzyme activity with inhibitor), single determinations ([5]; Pseudolysin (PLN), inhibitor 100 μM, preincubation 15 min): 0.293 and 0.3019
remaining activity at 100 µM ([5]; read-out: vi/v0 avg, Pseudolysin, no preincubation): 39.7%
Ki [6]: 80000 nM
remaining activity at 100 µM ([6]; 0.25 h, read-out: vi/v0 (single replicate), Aureolysin, 15 min pre incubation): 45.5%
remaining activity at 100 µM ([6]; 0.25 h, read-out: vi/v0 avg, Aureolysin, 15 min pre incubation): 41.5%
remaining activity at 100 µM ([6]; 0.5 h, read-out: vi/v0 (single replicate), Aureolysin, 30 min pre incubation): 39.1%
remaining activity at 100 µM ([6]; 0.5 h, read-out: vi/v0 avg, Aureolysin, 30 min pre incubation): 39.4%
inhibitory effect on enzymatic activity ([6]; ALN, 100 μM compound, in words): strong inhibition
vi/v0 Av (bar diagram figure 7) ([6]; Aureolysin (ALN), inhibitor 100 μM, average over 0, 15, 30 min preincubation): 0.4117
vi/v0 (relative enzyme activity with inhibitor), single determinations ([6]; Aureolysin (ALN), inhibitor 100 μM, preincubation 0 min): 0.4244 and 0.4426 and 0.4113 and 0.3677
vi/v0 (relative enzyme activity with inhibitor), single determinations ([6]; Aureolysin (ALN), inhibitor 100 μM, preincubation 15 min): 0.4549 and 0.4344 and 0.3957 and 0.4144
vi/v0 (relative enzyme activity with inhibitor), single determinations ([6]; Aureolysin (ALN), inhibitor 100 μM, preincubation 30 min): 0.3912 and 0.406 and 0.3859
remaining activity at 100 µM ([6]; read-out: vi/v0 (single replicate), Aureolysin, no preincubation): 42.4%
remaining activity at 100 µM ([6]; read-out: vi/v0 avg, Aureolysin, no preincubation): 41.1%
remaining activity at 100 µM ([7]; 0.25 h, read-out: vi/v0 avg, rMMP-9 (Mag-trypsin activated), 15 min pre incubation): 1.53%
remaining activity at 100 µM ([7]; 0.5 h, read-out: vi/v0 (single replicate), rMMP-9 (Mag-trypsin activated), 30 min pre incubation): 1.66%
remaining activity at 100 µM ([7]; 0.5 h, read-out: vi/v0 avg, rMMP-9 (Mag-trypsin activated), 30 min pre incubation): 1.41%
inhibitory effect on enzymatic activity ([7]; MMP-9(MT), 100 μM compound, in words): strong inhibition
Ki ([7]; MMP-9(MT), substrate ES001 4.0 µM, 0.1 M Hepes pH 7.5, 37°C, 1.0% DMSO, Ki from IC50 (Eqn. 3), read-out: Ki ± s.d. (converted)): 530 nM
vi/v0 ([7]; Log [H2] (M) -4): 0.01838 and 0.0265 and 0.01864 and 0.01609
vi/v0 ([7]; Log [H2] (M) -5): 0.1569 and 0.1424 and 0.1393 and 0.1595
vi/v0 ([7]; Log [H2] (M) -6): 0.5598 and 0.5376 and 0.5583 and 0.5906
vi/v0 ([7]; Log [H2] (M) -7): 0.8621 and 0.7854 and 0.9893
vi/v0 ([7]; Log [H2] (M) -8): 0.9994 and 0.9899 and 0.9629
vi/v0 ([7]; Log [H2] (M) -9): 0.9775 and 0.9856 and 0.9448
vi/v0 ([7]; Log [H2] (M) -10): 1.053 and 1.045 and 1.043
vi/v0 Av (bar diagram figure 7) ([7]; rMMP-9 (Mag-trypsin activated), inhibitor 100 μM, average over 0, 15, 30 min preincubation): 0.01565
vi/v0 (relative enzyme activity with inhibitor), single determinations ([7]; rMMP-9 (Mag-trypsin activated), inhibitor 100 μM, preincubation 0 min): 0.01777 and 0.01586 and 0.01778 and 0.01563
vi/v0 (relative enzyme activity with inhibitor), single determinations ([7]; rMMP-9 (Mag-trypsin activated), inhibitor 100 μM, preincubation 30 min): 0.01655 and 0.01171
remaining activity at 100 µM ([7]; read-out: vi/v0 (single replicate), rMMP-9 (Mag-trypsin activated), no preincubation): 1.78%
remaining activity at 100 µM ([7]; read-out: vi/v0 avg, rMMP-9 (Mag-trypsin activated), no preincubation): 1.68%
remaining activity at 10 µM ([8]; 0.25 h, read-out: vi/v0 (single replicate), rMMP-9 (APMA activated), 15 min pre incubation): 2.55%
remaining activity at 10 µM ([8]; 0.25 h, read-out: vi/v0 avg, rMMP-9 (APMA activated), 15 min pre incubation): 2.28%
remaining activity at 10 µM ([8]; 0.5 h, read-out: vi/v0 (single replicate), rMMP-9 (APMA activated), 30 min pre incubation): 1.79%
remaining activity at 10 µM ([8]; 0.5 h, read-out: vi/v0 avg, rMMP-9 (APMA activated), 30 min pre incubation): 1.99%
inhibitory effect on enzymatic activity ([8]; MMP-9(A), 100 μM compound, in words): strong inhibition
Ki ([8]; MMP-9(A), substrate ES001 4.0 µM, 0.1 M Hepes pH 7.5, 37°C, 1.0% DMSO, Ki from IC50 (Eqn. 3), read-out: Ki ± s.d. (converted)): 560 nM
vi/v0 Av (bar diagram figure 7) ([8]; rMMP-9 (APMA activated), inhibitor 10 μM, average over 0, 15, 30 min preincubation): 0.02111
vi/v0 (relative enzyme activity with inhibitor), single determinations ([8]; rMMP-9 (APMA activated), inhibitor 10 μM, preincubation 0 min): 0.0222 and 0.02292 and 0.01955 and 0.01797
vi/v0 (relative enzyme activity with inhibitor), single determinations ([8]; rMMP-9 (APMA activated), inhibitor 10 μM, preincubation 15 min): 0.02548 and 0.02093 and 0.0213 and 0.0234
vi/v0 (relative enzyme activity with inhibitor), single determinations ([8]; rMMP-9 (APMA activated), inhibitor 10 μM, preincubation 30 min): 0.01792 and 0.01966 and 0.0206 and 0.02139
remaining activity at 10 µM ([8]; read-out: vi/v0 (single replicate), rMMP-9 (APMA activated), no preincubation): 2.22%
remaining activity at 10 µM ([8]; read-out: vi/v0 avg, rMMP-9 (APMA activated), no preincubation): 2.07%
